Laboratory results published in US9657351B2, “MRNA-based gene expression for personalizing patient cancer therapy with an MDM2 antagonist” (Hoffmann-La Roche Inc., priority 2013, dated 2017).
Like-named read-outs stand apart in the source and are kept apart here.

Legend:
PC-6 = assay: COMPOUND A In Vitro Assay; format: cell-based; details: Homo sapiens, Lung, TP53 Wild type
Description: (§1) To generate an MDM2 antagonist therapy predictive signature, the response of MDM2 antagonist therapy in vitro with gene expression profiling (FIG. 1) is combined. A bank of 287 human cancer cell lines, collectively termed the Cell Lines for Oncology/Chugai ACcumulative Tumour EncycLopedia (CELLO/CACTEL), representing a broad array of diverse human cancer tumor types are subject to evaluation using several high-throughput genomic technology platforms. The mutational status of nucleic acids from each cell line is determined by exome sequencing. Messenger RNA (mRNA) expression levels at baseline, prior to MDM2 antagonist therapy, are obtained via RNA sequencing. MDM2 antagonist therapy COMPOUND A, sometimes referred to herein as RG7112, responses are obtained by assays known to those skilled in the art such as RNA sequencing and microarray measurement using Gene Chip Human Genome U133 Plus 2.0 Array. The MDM2 therapy responses are obtained by high throughout screening assays. Depending on their responses to COMPOUND A these cell lines are classified as either sensitive, defined as IC50<=1, or resistant, defined as IC50>=10.
(§2) 281 cells are treated with MDM2 antagonists and the IC50 (therapy response) is generated. The cell lines span a broad range of tumor cell types of derivation.

NCI-H1755 = assay: COMPOUND A In Vitro Assay; format: cell-based; details: Homo sapiens, Lung, TP53 Mutant
Description: as §1, §2

EGI-1 = assay: COMPOUND A In Vitro Assay; format: cell-based; details: Homo sapiens, Bile duct, TP53 Mutant
Description: as §1, §2

SCH = assay: COMPOUND A In Vitro Assay; format: cell-based; details: Homo sapiens, Stomach, TP53 Mutant
Description: as §1, §2

UM-UC-3 = assay: COMPOUND A In Vitro Assay; format: cell-based; details: Homo sapiens, UMUC3, Urinary, bladder, TP53 Mutant
Description: as §1, §2

COLO 320DM = assay: COMPOUND A In Vitro Assay; format: cell-based; details: Homo sapiens, Intestine, large, colon, TP53 Mutant
Description: as §1, §2

EFO-21 = assay: COMPOUND A In Vitro Assay; format: cell-based; details: Homo sapiens, Ovary, TP53 Mutant
Description: as §1, §2

MDA-MB-361 = assay: COMPOUND A In Vitro Assay; format: cell-based; details: Homo sapiens, Breast, mammary gland, TP53 Mutant
Description: as §1, §2

Caki-1 = assay: COMPOUND A In Vitro Assay; format: cell-based; details: Homo sapiens
Description: as §1, §2

SW1116 = assay: COMPOUND A In Vitro Assay; format: cell-based; details: Homo sapiens, SW 1116, Intestine, large, colon, TP53 Mutant
Description: as §1, §2

KARPAS-299 = assay: COMPOUND A In Vitro Assay; format: cell-based; details: Homo sapiens, Blood, TP53 Mutant
Description: as §1, §2

C32 = assay: COMPOUND A In Vitro Assay; format: cell-based; details: Homo sapiens, Skin, TP53 Wild type
Description: as §1, §2

LP-1 = assay: COMPOUND A In Vitro Assay; format: cell-based; details: Homo sapiens, Lymphocyte, peripheral blood, TP53 Mutant
Description: as §1, §2

KYSE-150 = assay: COMPOUND A In Vitro Assay; format: cell-based; details: Homo sapiens, Esophagus, TP53 Mutant
Description: as §1, §2

NCI-H69 = assay: COMPOUND A In Vitro Assay; format: cell-based; details: Homo sapiens, Lung, TP53 Mutant
Description: as §1, §2

SW780 = assay: COMPOUND A In Vitro Assay; format: cell-based; details: Homo sapiens
Description: as §1, §2

LoVo = assay: COMPOUND A In Vitro Assay; format: cell-based; details: Homo sapiens, Intestine, large, colon, TP53 Wild type
Description: as §1, §2

MIA PaCa-2 = assay: COMPOUND A In Vitro Assay; format: cell-based; details: Homo sapiens, Pancreas, TP53 Mutant
Description: as §1, §2

MDM2 mRNA [1] = assay: NP21280 solid tumor trial, tumor biopsy biomarker (MDM2 mRNA); format: in vivo, human; details: at C1D10, p=1.03×10−5
[2] = system: Ki-67-positive tumor cells; details: NP22890; as previously reported; cited from earlier work
clinical = details: both, human, in vivo, AUC0-24, median
MDM2 mRNA [3] = details: NP22890; at C1D8; as previously reported; cited from earlier work
[4] = system: 4-gene mRNA signature score (MDM2, XPC, BBC3, CDKN2A); assay: NO21279 4-gene mRNA signature score on treatment; format: in vivo, human
Procedure: MDM2 mRNA concentrations were assessed at Roche Molecular Systems by quantitative real-time PCR with 50 ng total RNA from MACs isolated leukemia cells from blood. TaqMan (Invitrogen, Carlsbad, Calif., USA) probes were designed to detect MDM2 mRNA and the reference mRNA, beta-glucuronidase, simultaneously using two different fluorescent reporters. Gene expression profiles were generated using Affymetrix U133 Plus 2.0 microarrays. Probset ID's for the each of the four genes on said U133 Plus 2.0 microarray are: 209375_s_at (for XPC); 205386_s_at and 211832_s_at (MDM2); 211692_s_at (BBC3); 207039_at and 211156_at (CDKN2A). The “mRNA expression level” for one of the 4 genes according to the present invention is the accumulation of all counts falling into the range of exons of a gene (e.g. MDM2). […] The predictive patient signature score according to the present invention is then calculated using the following equation: patient signature score=GMDM2+GXPC+GBBC3−GCDKN2A. G in the formula stands for log 2 transformed mRNA expression levels as obtained from patient samples, for example blood leukemia or bone marrow biopsy samples. For example, for the patient data reported in Table 9 (Example 5), G is log 2 of the mRNA probeset expression of the relevant gene as measured with Affymetrix U133 Plus 2.0 microarrays.
Risk scores are calculated for patients based on their mRNA expression values of the 4 genes at baseline prior to treatment. To ensure a rigorous and an unbiased validation, the compute of the coefficients in the test cohort is not done. However, due to the platform difference and the biological differences between patients and cell lines, in-vitro coefficients for the patient level classifier is not applied.

Which IC50 (PC-6) does the source give for CCOc1cc(C(C)(C)C)ccc1C1=N[C@@](C)(c2ccc(Cl)cc2)[C@@](C)(c2ccc(Cl)cc2)N1C(=O)N1CCN(CCCS(C)(=O)=O)CC1 [COMPOUND A] here?
Its IC50 is 8.2 µM.

And the IC50 (NCI-H1755)?
Its IC50 is 7.8 µM.

And the IC50 (EGI-1)?
The IC50 was 9 µM.

What about the IC50 (SCH) of the same compound?
The IC50 was 17 µM.

What about the IC50 (UM-UC-3) of the same compound?
The IC50 was 15 µM.

And the IC50 (COLO 320DM)?
Its IC50 is 12 µM.

What about the IC50 (EFO-21) of the same compound?
Its IC50 is 31 µM.

And the IC50 (MDA-MB-361)?
The IC50 was 21 µM.

And the IC50 (Caki-1; CAKI-1, Caki-1, Kidney, TP53 Wild type)?
Its IC50 is 0.37 µM.

And the IC50 (Caki-1; CAKI-1, Caki-1 cells)?
The IC50 was 0.4 µM.

What about the IC50 (SW1116) of the same compound?
The IC50 was 12 µM.

And the IC50 (KARPAS-299)?
Its IC50 is 19 µM.

What about the IC50 (C32) of the same compound?
The IC50 was 3 µM.

What about the IC50 (LP-1) of the same compound?
The IC50 was 4.4 µM.

What about the IC50 (KYSE-150) of the same compound?
Its IC50 is 3 µM.

And the IC50 (NCI-H69)?
The IC50 was 15 µM.

What about the IC50 (SW780; SW780, SW780, Urinary, bladder, TP53 Wild type) of the same compound?
The IC50 was 0.97 µM.

And the IC50 (SW780; SW780, SW780 cells)?
Its IC50 is 1 µM.

And the IC50 (LoVo)?
The IC50 was 1.3 µM.

And the IC50 (MIA PaCa-2)?
The IC50 was 19 µM.

And the “MDM2 mRNA expression change from baseline” value (MDM2 mRNA [1])?
The value was “significantly increase”.

And the “Ki-67-positive tumor cells change from baseline” value [2]?
The value was “decreased”.

And the AUC(0-t) (clinical)?
Its AUC(0-t) is 190 µg·h/mL.

And the “MDM2 mRNA expression change from baseline” value (MDM2 mRNA [3])?
The value was “significantly increase”.

What about the “median signature score over baseline” value ([4]; C1D2, CR patients, IQR 1.13-1.15) of the same compound?
The value was 1.15 times.

What about the “median signature score over baseline” value ([4]; C1D2, HI patients, IQR 1.04-1.10) of the same compound?
Its value is 1.08 times.

And the “median signature score over baseline” value ([4]; C1D2, MLFS patients, IQR 1.14-1.19)?
The value was 1.17 times.

And the “median signature score over baseline” value ([4]; C1D2, PD patients, IQR 1.05-1.16)?
The value was 1.11 times.

What about the “median signature score over baseline” value ([4]; C1D10, CR patients, IQR 1.22-1.24) of the same compound?
Its value is 1.23 times.

What about the “median signature score over baseline” value ([4]; C1D10, HI patients, IQR 1.23-1.30) of the same compound?
Its value is 1.25 times.

What about the “overall signature score over baseline” value ([4]; C1D10, IQR 1.88-4.23) of the same compound?
The value was 3.05 times.

What about the “median signature score over baseline” value ([4]; C1D10, MLFS patients, IQR 1.23-1.31) of the same compound?
Its value is 1.26 times.

And the “median signature score over baseline” value ([4]; C1D10, PD patients, IQR 1.08-1.21)?
Its value is 1.14 times.
